Assay results taken from patent US12649750B2, “Macrocyclic compounds, compositions, and methods of using thereof” (Sionna Therapeutics Inc., priority 2022, dated 2026).

Key:
NBD1 = biological target: T1, NBD1 (Homo sapiens, UniProt P13569); experiment: Aggregation analysis using differential static light scattering (DSLS), thermal stability of NBD1 (ΔTagg); type: binding; details: ΔTagg versus DMSO control, NBD1 0.2 mg/ml
T1 construct: Purified recombinant NBD1 was produced using previously described methods; made in house
T1 sequence (P13569 423-646 limits assumed): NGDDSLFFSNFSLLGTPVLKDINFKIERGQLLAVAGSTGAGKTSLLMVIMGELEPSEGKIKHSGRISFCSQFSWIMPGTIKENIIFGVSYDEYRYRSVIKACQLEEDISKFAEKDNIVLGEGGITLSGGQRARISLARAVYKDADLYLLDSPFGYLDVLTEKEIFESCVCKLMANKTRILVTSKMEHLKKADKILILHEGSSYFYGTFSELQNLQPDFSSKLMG
Outline: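 Read-out is ΔTagg: the aggregation temperature, taken at the inflection of the light-scattering curve, less the average of DMSO control wells. Recombinant NBD1 (0.2 mg/ml, pH7.6 buffer containing 2 mM ATP) with test compound was heated at 1° C. per minute up to 70° C.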

CFTR = biological target: T2, CFTR (Homo sapiens, UniProt P13569, DEL508-508); experiment: TECC24 AUC fold over DMSO @10 μM, CFTR-mediated transepithelial chloride transport in CF-HBE cells; type: cell-based; details: test agent AUC divided by DMSO vehicle AUC, primary CF-HBE cells, ΔF508 homozygous donor, 48 hours incubation
T2 construct: Primary human bronchial epithelial cells from a ΔF508 homozygous CF donor; host or cells: primary human bronchial epithelial cells (CF-HBE), ΔF508 homozygous donor
T2 sequence (P13569 with tags, fused parts or gaps DEL508-508): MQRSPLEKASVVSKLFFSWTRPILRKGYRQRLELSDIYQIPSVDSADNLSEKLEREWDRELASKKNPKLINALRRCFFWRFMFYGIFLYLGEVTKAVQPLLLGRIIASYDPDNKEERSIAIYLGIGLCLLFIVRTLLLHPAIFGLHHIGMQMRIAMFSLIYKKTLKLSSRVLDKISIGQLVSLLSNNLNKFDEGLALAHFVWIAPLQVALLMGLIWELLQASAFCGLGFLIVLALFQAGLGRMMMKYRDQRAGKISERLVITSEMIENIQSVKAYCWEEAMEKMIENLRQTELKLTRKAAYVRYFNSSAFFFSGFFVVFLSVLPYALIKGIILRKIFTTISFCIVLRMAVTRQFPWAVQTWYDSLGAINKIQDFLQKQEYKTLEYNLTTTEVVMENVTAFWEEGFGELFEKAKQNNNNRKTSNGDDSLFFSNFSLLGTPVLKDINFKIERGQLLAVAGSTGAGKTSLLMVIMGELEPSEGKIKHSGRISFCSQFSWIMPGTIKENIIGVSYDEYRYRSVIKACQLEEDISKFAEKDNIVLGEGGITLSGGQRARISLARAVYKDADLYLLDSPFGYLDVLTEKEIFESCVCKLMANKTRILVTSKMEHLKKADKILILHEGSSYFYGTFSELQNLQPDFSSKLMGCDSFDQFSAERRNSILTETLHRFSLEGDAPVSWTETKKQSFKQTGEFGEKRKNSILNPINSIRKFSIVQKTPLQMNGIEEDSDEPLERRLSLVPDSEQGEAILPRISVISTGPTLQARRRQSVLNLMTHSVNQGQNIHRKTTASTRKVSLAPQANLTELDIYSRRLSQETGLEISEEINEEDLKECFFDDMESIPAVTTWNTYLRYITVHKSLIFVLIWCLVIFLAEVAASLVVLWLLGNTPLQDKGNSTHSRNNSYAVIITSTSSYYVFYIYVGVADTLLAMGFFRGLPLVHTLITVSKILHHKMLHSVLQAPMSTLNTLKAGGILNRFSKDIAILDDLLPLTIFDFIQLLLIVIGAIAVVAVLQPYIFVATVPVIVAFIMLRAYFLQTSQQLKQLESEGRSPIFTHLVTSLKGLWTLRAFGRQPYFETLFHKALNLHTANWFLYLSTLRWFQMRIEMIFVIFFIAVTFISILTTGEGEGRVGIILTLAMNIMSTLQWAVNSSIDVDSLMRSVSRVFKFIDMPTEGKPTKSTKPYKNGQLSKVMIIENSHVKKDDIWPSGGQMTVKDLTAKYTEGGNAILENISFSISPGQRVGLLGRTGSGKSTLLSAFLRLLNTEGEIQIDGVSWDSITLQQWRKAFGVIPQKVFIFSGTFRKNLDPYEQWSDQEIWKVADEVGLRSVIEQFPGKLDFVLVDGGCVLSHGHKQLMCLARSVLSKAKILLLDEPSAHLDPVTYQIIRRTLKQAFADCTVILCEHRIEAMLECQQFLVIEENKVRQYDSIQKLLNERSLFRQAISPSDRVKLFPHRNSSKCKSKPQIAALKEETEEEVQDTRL
Outline: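 ΔF508-homozygous primary bronchial epithelial cells incubated 48 h at 36.5° C with compound (10 μM) in IL-13-containing medium, then TECC24 current-clamp recording in pH 7.4 Hepes saline with benzamil 10 μM, forskolin 10 μM, then CFTR inhibitor-172 20 μM. Equivalent Cl− current AUC between forskolin and inhibitor, expressed as fold over DMSO.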

SMILES	DSLS 3D (100 μM ΔT) (NBD1)	TECC (AUC, 10 μM) (CFTR)
Cn1nc2nc1-c1cc(ccc1F)Oc1c(F)cc3[nH]ccc3c1CCS(=O)(=O)CC(C)(C)CCCC2(C)c1cccc(CC(O)CO)c1 (single isomer, unassigned) [Compound 97A, 3-[3-(22,28-difluoro-3,6,10,10-tetramethyl-12,12-dioxo-24-oxa-12λ6-thia-3,4,19,30-tetrazapentacyclo[23.3.1.12,5.015,23.016,20]triaconta-1(29),2(30),4,15,17,20,22,25,27-nonaen-6-yl)phenyl]propane-1,2-diol]	C (a value greater than 10 °C and less than or equal to 25 °C is marked “C”)	A (a TECC value less than 12 is marked “A”)
Cn1nc2nc1-c1cc(ccc1F)Oc1c(F)cc3[nH]ccc3c1CCS(=O)(=O)CC(C)(C)CCCC2(C)c1cccc(CC(O)CO)c1 (single isomer, unassigned) [Compound 97B, 3-[3-(22,28-difluoro-3,6,10,10-tetramethyl-12,12-dioxo-24-oxa-12λ6-thia-3,4,19,30-tetrazapentacyclo[23.3.1.12,5.015,23.016,20]triaconta-1(29),2(30),4,15,17,20,22,25,27-nonaen-6-yl)phenyl]propane-1,2-diol]	A (an ΔTagg value less than or equal to 5 °C is marked “A”)	A (a TECC value less than 12 is marked “A”)
[2H]C([2H])([2H])C1(c2cccc(CCC(=O)O)c2)CCCC(C([2H])([2H])[2H])(C([2H])([2H])[2H])CS(=O)(=O)CCc2c(c(F)cc3[nH]ccc23)Oc2ccc(F)c(c2)-c2nc1nn2C (single isomer, unassigned) [Compound 98A, 3-[3-[22,28-difluoro-3-methyl-12,12-dioxo-6,10,10-tris(trideuteriomethyl)-24-oxa-12lambda6-thia-3,4,19,30-tetrazapentacyclo-[23.3.1.12,5.015,23.016,20]triaconta-1(29),2(30),4,15,17,20,22,25,27-nonaen-6-yl]phenyl]propanoic acid]	C (a value greater than 10 °C and less than or equal to 25 °C is marked “C”)	B (a value between 12-20 is marked “B”)
[2H]C([2H])([2H])C1(c2cccc(CCC(=O)O)c2)CCCC(C([2H])([2H])[2H])(C([2H])([2H])[2H])CS(=O)(=O)CCc2c(c(F)cc3[nH]ccc23)Oc2ccc(F)c(c2)-c2nc1nn2C (single isomer, unassigned) [Compound 98B, 3-[3-[22,28-difluoro-3-methyl-12,12-dioxo-6,10,10-tris(trideuteriomethyl)-24-oxa-12lambda6-thia-3,4,19,30-tetrazapentacyclo-[23.3.1.12,5.015,23.016,20]triaconta-1(29),2(30),4,15,17,20,22,25,27-nonaen-6-yl]phenyl]propanoic acid]	C (a value greater than 10 °C and less than or equal to 25 °C is marked “C”)	C (a value between 20 and 80 is marked “C”)
Cn1nc2nc1-c1cc(ccc1F)Oc1c(F)cc3[nH]ccc3c1Cc1ccn(n1)CCS(=O)(=O)CCC2(C)c1cccc(CCC(=O)O)c1 (single isomer, unassigned) [Compound 100A, 3-[3-(24,30-difluoro-3,6-dimethyl-9,9-dioxo-26-oxa-9λ6-thia-3,4,12,21,32,33-hexazahexacyclo[25.3.1.12,5.112,15.017,25.018,22]tritriaconta-1(31),2(33),4,13,15(32),17,19,22,24,27,29-undecaen-6-yl)phenyl]propanoic Acid]	C (a value greater than 10 °C and less than or equal to 25 °C is marked “C”)	A (a TECC value less than 12 is marked “A”)
